Experiment [1] has as its system full thickness (excisional) wounds. Description: Accelerated wound healing study, full thickness acute wound model. The experiment is classed as in vivo, albino rats. The conditions noted are these: rats, topical on wound, over 15 days; versus gauze and Comfeel.
Protocol: In the examples of the study, a series of comparative control bandage substrates were evaluated as to the speed at which wounds covered/dressed with such bandages healed. In particular, the rates of re-epithelialization were measured for wounds dressed by such control dressing materials.
Wounds were treated with test and control articles on the day of wounding (day 0) on 2,4,6,8,10, 12, and 14 days after the injury. CNA (freeze dried) was cut to the approximate size of the wound and applied over the wound. Chitosan (powder) and NA (powder) were applied over the wound to the depth that covered the underlying tissue. The gauze was cut to extend approximately 0.5 cm beyond the margins of the wound. […]
For the study, twenty four albino rats (12M/12F), each weighing between 250-300 g, were anesthetized (90 mg/Kg Ketamine HCL and 10 mg/Kg Xylazine) and the entire dorsal region of each rat was shaved. […] The epithelial thickness of the three sections of the wound (margin, center and midpoint between these two) was measured by morphometric analysis of the microscopic image using Image-Pro Plus software, Version 3.0 (Media Cybernetics). The average thickness of these sites within the wound was determined for wound healing of the entire site.
Experiment [2] relates to human blood. The experiment in a line: Lee and White coagulation assay in human blood. Particulars: dried form, 5 mg/ml, triplicate. How it is done:
Several hemostatic agents were compared to determine relative effectiveness when reviewed with untreated human blood. Such comparison is illustrated in the following Table 23.
Each of the compounds were evaluated in the comparison against the standard control (human blood) and the negative control heparin, which is an anti-coagulant.
Lee and White Coagulation Assay in Human Blood

Take `NC(=O)c1cccnc1.O=C1O[C@H]([C@@H](O)CO)C(O)=C1O` [NA, Niacinamide ascorbate]: in experiment [1], the “wound healing capability (rate of epithelialization, epithelial thickness)” value is reported as “dramatically increased the wound healing capability”.
With Heparin, the “BLOOD CLOTTING TIME” value in experiment [2] is listed as “NC (NC = No Clot for 60 min)”.

Values taken from patent US6967261B1, “Bandage, methods of producing and using same” (Kimberly-Clark Worldwide, priority 2001, dated 2005).
